Results taken from US20060141067A1, “Anti-allergic herbal formulation” (priority 2004, published 2006).
Marks after values point to notes of the source that are not given here.

System: mast cell
Assay: Mast cell degranulation in rats (histamine released)
Type: in vivo
Conditions: 25 mg/kg p.o., mean ± S.E.M.
Description: Mast cell degranulation: Tyrode solution (10 ml) containing 5 units/ml of heparin was injected in the peritoneal cavity of sensitized male rats lightly anaesthetized with ether. After a gentle abdominal massage for about 30 to 45 sec, the mast cell rich peritoneal fluid was collected over ice and centrifuged at 2000 rpm for 5 min. The cells were washed thrice with chilled Tyrode and resuspended in about 1 ml of Tyrode solution. The peritoneal fluid was obtained from 10 rats and the final volume of the fluid was pooled and used for the studies (Nair A M et al, 1997).

For `CN(C)CCC(c1ccccc1)c1ccccn1.O=C(O)/C=C\C(=O)O` (stereo not shown) [Avil], the Histamine released was 0.345 ± 0.04^b μg/ml.
